# From patent US6395735B2, “Pharmaceutical compounds” (Eli Lilly and Company, priority 1997, dated 2002)
# Biological target: T1, human m4 receptors (Homo sapiens, UniProt P08173)
# T1 construct: expressed in transfected cells; host or cells: CHO K1 cells
# Assay: Stimulation of cyclic AMP production in pertussis toxin-treated CHO-m4 cells
# Type: cell-based
# Details: forskolin present
# Description: Cyclic AMP Accumulation in Pertussis Toxin-Treated CHO m4 Cells. CHO K1 cells transfected with human m4 receptors were grown to near confluency in T-150 flasks using Dulbecco's Modified Eagle Medium (DMEM) containing 10% fetal bovine serum. Cells were detached with 0.05% trypsin, 0.53 mM EDTA, and were suspended in medium containing 100 ng/ml pertussis toxin. Cells were plated at 30,000 cells per well into 96 well plates. Eighteen to twenty hours later the medium was removed and the cells were washed with serum-bee medium. Attached cells were incubated at 37 C for one hour after addition of […] of serum free DMEM containing 1 mM 3-isobutyl-1-methylxanthine and 1 mM forskolin plus or minus drugs being tested. Incubations were terminated with […] per well of serum free DMEM containing 0.3% triton-X-100. After stopping incubations the plates were allowed to sit for 20 minutes to extract cAMP and samples were then diluted 2.5-fold and were assayed using the scintillation proximity assay of Amersham (Arlington Heights, Ill.).
# Representative results from the M4 assay are as follows
# Stimulation of cyclic AMP production in CHO-m4 cells.
# T1 sequence (P08173 whole entry): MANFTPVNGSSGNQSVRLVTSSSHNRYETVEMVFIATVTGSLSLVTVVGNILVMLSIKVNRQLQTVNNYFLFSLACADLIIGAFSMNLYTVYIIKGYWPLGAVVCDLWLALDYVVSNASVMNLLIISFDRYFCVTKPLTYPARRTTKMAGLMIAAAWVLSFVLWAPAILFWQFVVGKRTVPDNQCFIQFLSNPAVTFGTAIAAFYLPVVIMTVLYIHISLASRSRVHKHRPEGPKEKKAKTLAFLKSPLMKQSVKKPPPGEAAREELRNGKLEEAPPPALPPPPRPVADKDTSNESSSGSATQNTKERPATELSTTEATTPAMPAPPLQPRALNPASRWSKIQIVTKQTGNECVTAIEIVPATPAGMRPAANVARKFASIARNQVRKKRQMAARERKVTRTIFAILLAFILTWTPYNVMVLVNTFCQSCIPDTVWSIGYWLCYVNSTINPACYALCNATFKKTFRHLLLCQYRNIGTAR
row,SMILES,% Maximum Stimulation Compared to Oxotremorine-M [%]
1,CCCc1ccc(C(=O)NC2c3cc(N=CN4CCCC4)ccc3CC2O)cc1 (stereo not drawn) [Compound 26],<20
2,O=C(NC1c2cc(N=CN3CCCC3)ccc2CC1O)c1ccccc1C(F)(F)F (stereo not drawn) [Compound 35],65
3,O=C(NC1c2cc(N=CN3CCCC3)ccc2CC1O)c1ccc(C(F)(F)F)cc1 (stereo not drawn) [Compound 18],61
4,CN(C)C=Nc1ccc2c(c1)[C@@H](NC(=O)c1cc3ccccc3s1)[C@H](O)C2 [Compound 69],14
5,CCCCc1ccc(C(=O)N[C@@H]2c3cc(N=CN(C)C)ccc3C[C@H]2O)cc1 [Compound 70],18
6,O=C(NC1c2cc(N=CN3CCCC3)ccc2CC1O)c1cccc(Cl)c1Cl (stereo not drawn) [Compound 31],45
7,O=C(NC1c2cc(N=CN3CCCC3)ccc2CC1O)C1CCCCC1 (stereo not drawn) [Compound 11],34
8,O=C(CSc1ccccc1)NC1c2cc(N=CN3CCCC3)ccc2CC1O (stereo not drawn) [Compound 28],<20
9,CN(C)C=Nc1ccc2c(c1)[C@@H](NC(=O)c1ccccc1)[C@H](O)C2 [Compound 57],5
10,N#Cc1cccc(C(=O)NC2c3cc(N=CN4CCCC4)ccc3CC2O)c1 (stereo not drawn) [Compound 38],<20
11,O=C(NC1c2cc(N=CN3CCCC3)ccc2CC1O)c1c(F)ccc(F)c1F (stereo not drawn) [Compound 29],<20
12,O=C(NC1c2cc(N=CN3CCCC3)ccc2CC1O)c1cc(F)ccc1F (stereo not drawn) [Compound 32],<20
13,O=C(NC1c2cc(N=CN3CCCC3)ccc2CC1O)c1cc(F)c(F)c(F)c1 (stereo not drawn) [Compound 39],43
14,O=C(N[C@@H]1c2cc(N=CN3CCCCC3)ccc2C[C@H]1O)c1cccc(Cl)c1Cl [Compound 88],52
15,CN(C)C=Nc1ccc2c(c1)[C@@H](NC(=O)c1cc(F)cc(C(F)(F)F)c1)[C@H](O)C2 [Compound 64],52
16,CN(C)C=Nc1ccc2c(c1)[C@@H](NC(=O)c1ccc(C(F)(F)F)cc1)[C@H](O)C2 [Compound 75],6
17,O=C(NC1c2cc(N=CN3CCCC3)ccc2CC1O)c1ccc([N+](=O)[O-])cc1Cl (stereo not drawn) [Compound 20],69
18,CN(C)C=Nc1ccc2c(c1)[C@@H](NC(=O)C(F)(F)F)[C@H](O)C2 [Compound 66],0
19,O=C(NC1c2cc(N=CN3CCCC3)ccc2CC1O)c1cc(F)cc(F)c1 (stereo not drawn) [Compound 23],<20

row,SMILES,% Maximum Stimulation Compared to Oxotremorine-M [%]
1,O=C(NC1c2cc(N=CN3CCCC3)ccc2CC1O)c1ccc(F)c(F)c1F (stereo not drawn) [Compound 33],45
2,CN(C)C=Nc1ccc2c(c1)[C@@H](NC(=O)c1sccc1Cl)[C@H](O)C2 [Compound 68],0
3,CN(C)C=Nc1ccc2c(c1)[C@@H](NC(=O)c1cccc3ccccc13)[C@H](O)C2 [Compound 71],95
4,CN(C)C=Nc1ccc2c(c1)[C@@H](NC(=O)c1cc(Cl)cc(Cl)c1)[C@H](O)C2 [Compound 58],74
5,CN(C)C=Nc1ccc2c(c1)[C@@H](NC(=O)c1cc(F)c(F)c(F)c1)[C@H](O)C2 [Compound 65],30
6,O=C(NC1c2cc(N=CN3CCCC3)ccc2CC1O)c1cccs1 (stereo not drawn) [Compound 21],23
7,CN(C)C=Nc1ccc2c(c1)[C@@H](NS(=O)(=O)c1ccc(Cl)c(Cl)c1)[C@H](O)C2 [Compound 72],4
8,O=C(NC1c2cc(N=CN3CCCC3)ccc2CC1O)c1cccc2ccccc12 (stereo not drawn) [Compound 15],76
9,N#Cc1ccc(C(=O)NC2c3cc(N=CN4CCCC4)ccc3CC2O)cc1 (stereo not drawn) [Compound 13],<20
10,O=C(NC1c2cc(N=CN3CCCC3)ccc2CC1O)c1cccc([N+](=O)[O-])c1 (stereo not drawn) [Compound 25],43
11,O=C(NC1c2cc(N=CN3CCCC3)ccc2CC1O)c1cccc(F)c1F (stereo not drawn) [Compound 24],22
12,O=C(NC1c2cc(N=CN3CCCC3)ccc2CC1O)c1ccc2ccccc2c1 (stereo not drawn) [Compound 17],56
13,CN(C)C=Nc1ccc2c(c1)[C@@H](NC(=O)c1ccc3ccccc3c1)[C@H](O)C2 [Compound 63],13
14,CN(C)C=Nc1ccc2c(c1)[C@@H](NC(=O)C1CCCC1)[C@H](O)C2 [Compound 62],27
15,O=C(NC1c2cc(N=CN3CCCC3)ccc2CC1O)C(F)(F)F (stereo not drawn) [Compound 19],<20
16,CCCCc1ccc(C(=O)N[C@@H]2c3cc(N=CN4CCCC4)ccc3C[C@H]2O)cc1 [Compound 45],<20
17,CN(C)C=Nc1ccc2c(c1)[C@@H](NC(=O)c1cccc(C#N)c1)[C@H](O)C2 [Compound 61],39
18,O=C(NC1c2cc(N=CN3CCCC3)ccc2CC1O)C1CCC1 (stereo not drawn) [Compound 41],<20
19,CC(=Nc1ccc2c(c1)[C@@H](NC(=O)c1ccc(Cl)c(Cl)c1)[C@H](O)C2)N(C)C [Compound 76],130

row,SMILES,% Maximum Stimulation Compared to Oxotremorine-M [%]
1,O=C(NC1c2cc(N=CN3CCCC3)ccc2CC1O)c1cc(Cl)cc(Cl)c1 (stereo not drawn) [Compound 14],100
2,O=C(N[C@@H]1c2cc(N=CN3CCCCC3)ccc2C[C@H]1O)c1cc(Cl)cc(Cl)c1 [Compound 97],36
3,CCCCOc1ccc(C(=O)N[C@@H]2c3cc(N=CN(C)C)ccc3C[C@H]2O)cc1 [Compound 59],22
4,O=C(NC1c2cc(N=CN3CCCC3)ccc2CC1O)c1cccc(F)c1 (stereo not drawn) [Compound 30],<20
5,O=C(NC1c2cc(N=CN3CCCC3)ccc2CC1O)c1cccnc1Cl (stereo not drawn) [Compound 12],26
6,O=C(N[C@@H]1c2cc(N=CN3CCCCC3)ccc2C[C@H]1O)c1cc(F)cc(F)c1 [Compound 98],73
7,Cc1cccc(C(=O)NC2c3cc(N=CN4CCCC4)ccc3CC2O)c1 (stereo not drawn) [Compound 37],76
8,Cc1cc(C)c(C(=O)NC2c3cc(N=CN4CCCC4)ccc3CC2O)c(C)c1 (stereo not drawn) [Compound 27],<20
9,CCc1ccc(C(=O)N[C@@H]2c3cc(N=CN(C)C)ccc3C[C@H]2O)cc1 [Compound 67],7
10,COc1cccc(C(=O)NC2c3cc(N=CN4CCCC4)ccc3CC2O)c1 (stereo not drawn) [Compound 34],45
11,CN(C)C=Nc1ccc2c(c1)[C@@H](NC(=O)c1cc(C(F)(F)F)cc(C(F)(F)F)c1)[C@H](O)C2 [Compound 60],100
12,O=C(NC1c2cc(N=CN3CCCC3)ccc2CC1O)c1ccccc1Cl (stereo not drawn) [Compound 44],41
13,O=C(N[C@@H]1c2cc(N=CN3CCCCC3)ccc2C[C@H]1O)c1ccc(Cl)c(Cl)c1 [Compound 77],214
14,CN(C)C=Nc1ccc2c(c1)[C@@H](NC(=O)c1ccc(Cl)nc1)[C@H](O)C2 [Compound 74],8
15,O=C(NC1c2cc(N=CN3CCCC3)ccc2CC1O)c1cc(F)c(F)c(F)c1F (stereo not drawn) [Compound 40],96
16,O=C(N[C@@H]1c2cc(N=CN3CCCC3)ccc2C[C@H]1O)c1c(Cl)cccc1Cl [Compound 46],154
17,COc1cc(OC)cc(C(=O)NC2c3cc(N=CN4CCCC4)ccc3CC2O)c1 (stereo not drawn) [Compound 36],<20
18,CN(C)C=Nc1ccc2c(c1)[C@@H](NC(=O)c1cccnc1Cl)[C@H](O)C2 [Compound 73],11
19,O=C(N[C@@H]1c2cc(N=CN3CCCC3)ccc2C[C@H]1O)c1c(Cl)cc(Cl)cc1Cl [Compound 47],<20

# Biological target: T2, A9L-m1 (Homo sapiens, UniProt P11229)
# T2 sequence (P11229 1-460): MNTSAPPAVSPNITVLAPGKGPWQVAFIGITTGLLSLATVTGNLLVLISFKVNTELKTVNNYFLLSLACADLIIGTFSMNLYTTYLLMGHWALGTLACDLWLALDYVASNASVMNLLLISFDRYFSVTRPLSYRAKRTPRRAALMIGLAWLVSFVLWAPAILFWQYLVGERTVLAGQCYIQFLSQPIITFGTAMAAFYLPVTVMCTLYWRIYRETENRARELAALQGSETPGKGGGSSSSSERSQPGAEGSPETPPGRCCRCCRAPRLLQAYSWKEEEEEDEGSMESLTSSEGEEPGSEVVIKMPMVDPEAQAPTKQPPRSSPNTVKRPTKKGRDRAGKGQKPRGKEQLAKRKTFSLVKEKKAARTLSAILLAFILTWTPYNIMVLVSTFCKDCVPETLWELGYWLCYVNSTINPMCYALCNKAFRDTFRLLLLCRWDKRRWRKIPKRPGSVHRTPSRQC
# Assay: m1 secondary assay: PI stimulation in A9L-m1
# Type: cell-based
# Details: A9L-m1, relative to carbachol; read-out: Pl stim. A9L-m1 % Max of carbachol
row,SMILES,Emax [%]
1,Cc1ccc(C(=O)NC2c3cc(/N=C/N4CCCC4)ccc3C[C@@H]2O)cc1I (stereo partly drawn) [Compound 130],64
2,Cc1ccc(C(=O)NC2c3cc(/N=C/N4CCCC4)ccc3C[C@@H]2O)cc1Br (stereo partly drawn) [Compound 132],59
3,Cc1cc(C(=O)NC2c3cc(/N=C/N4CCCC4)ccc3C[C@@H]2O)ccc1Br (stereo partly drawn) [Compound 129],42

# Same assay, conditions: A9L-m1; read-out: ED-50 Pl stim A9L-m1, nm
row,SMILES,EC50 [nM]
1,Cc1ccc(C(=O)NC2c3cc(/N=C/N4CCCC4)ccc3C[C@@H]2O)cc1I (stereo partly drawn) [Compound 130],9.2
2,Cc1ccc(C(=O)NC2c3cc(/N=C/N4CCCC4)ccc3C[C@@H]2O)cc1Br (stereo partly drawn) [Compound 132],183
3,Cc1cc(C(=O)NC2c3cc(/N=C/N4CCCC4)ccc3C[C@@H]2O)ccc1Br (stereo partly drawn) [Compound 129],41.3
